pEC50: −log10 of the molar value.
Target: T1, delF508-CFTR (Homo sapiens, UniProt P13569, DEL508-508)
T1 construct: expressed in transfected cells
Assay: Measurement of delF508-CFTR-HRP surface expression in CFBE41o- cells
Type: cell-based
Conditions: for Emax: CFBE41o-, efficacy relative to reference compound 3-(6-(1-(2,2-difluorobenzo[d][1,3]dioxol-5-yl)cyclopropane-1-carboxamido)-3-methylpyridin-2-yl)benzoic acid, read-out: DelF508-CFTR-HRP Amax %; for pEC50: HRP-tagged delF508-CFTR surface expression, CFBE41o- cells, 24 h with compound, 10-point curve, highest concentration 10 μM
Text: Measurement of deIF508-CFTR-HRP Surface Expression in CFBE41o-Cells
This assay quantifies the cell surface expressions of the mutant CFTR channel using an extracellular HRP tag.
A cellular assay was developed to measure surface expression of horseradish peroxidase (HRP) tagged delF508-CFTR in the human bronchial epithelial immortalized CFBE41o-cell line (Phuan, P. W., et al, (2014) Molecular Pharmacology 86:42-51). Specifically, the HRP sequence was inserted into the fourth extracellular loop of delF508-CFTR and stably expressed in CFBE41o-cells. Cells were seeded in 384 well plate at a density of 5000 cells/well and incubated at 37° C. for 12 to 24 hours in medium (Gibco MEM #11095, 10% FBS, 10 mM HEPES, […], 200 μg/mL G418, 3 μg/mL Puromycin). The delF508-CFTR-HRP expression was induced with 500 ng/mL doxycycline (Sigma D-9891, dissolved in H2O and sterile filtered) in medium and the cells were incubated at 37° C. for 48 h. Old medium was removed and fresh medium was added containing 500 ng/mL doxycycline and unknown test compound at required test concentration in DMSO, not exceeding 0.5% final DMSO concentration. The highest concentration tested was 10 μM with a 10-point concentration response curve using a 3-fold dilution. After addition of compounds, the cells were incubated for 24 h at 37° C. On the final day, cells were washed four times in PBS containing 1 mM MgCl2 and 0.1 mM CaCl2. HRP-Substrate (SuperSignal ELISA Pico, Fisher #37069) 20 μl/well was added and the luminescence signal was determined (Viewlux, Perkin Elmer). Light was emitted upon addition of exogenous HRP-Substrate only when delF508-CFTR-HRP reached the cell surface and the HRP tag was accessible to the HRP-Substrate (note: HRP-Substrate cannot cross the lipid bilayer to reach delF508-CFTR-HRP misfolded within the cell).
The median activity for the lowest concentration of the compounds on each assay plate was calculated and this value was used to normalize the signal for each well on the respective plate. Three replicates at each concentrations for every compound were run to determine one EC50. The median value was determined and used to calculate compound activities as described below. Effective half maximal values (EC50) were calculated for each compound by performing logistic regression on measured dose-response data points using the equation: […]
where “Y” is the observed activity, “Bottom” is the lowest observed value, “Top” is the highest observed value, and the “Hill coefficient” gives the largest absolute value of the slope. The curve fitting is carried out by a curve fitting program implemented at GNF using Matlab (Mathworks).
The dose response curves also were used to calculate Fold Change (FC) using the equation: […]
Compound efficacy relative to the reference compound 3-(6-(1-(2,2-difluorobenzo[d][1,3]dioxol-5-yl)cyclopropane-1-carboxamido)-3-methylpyridin-2-yl)benzoic acid was determined using the following formula: […]

T1 sequence (P13569 with tags, fused parts or gaps DEL508-508): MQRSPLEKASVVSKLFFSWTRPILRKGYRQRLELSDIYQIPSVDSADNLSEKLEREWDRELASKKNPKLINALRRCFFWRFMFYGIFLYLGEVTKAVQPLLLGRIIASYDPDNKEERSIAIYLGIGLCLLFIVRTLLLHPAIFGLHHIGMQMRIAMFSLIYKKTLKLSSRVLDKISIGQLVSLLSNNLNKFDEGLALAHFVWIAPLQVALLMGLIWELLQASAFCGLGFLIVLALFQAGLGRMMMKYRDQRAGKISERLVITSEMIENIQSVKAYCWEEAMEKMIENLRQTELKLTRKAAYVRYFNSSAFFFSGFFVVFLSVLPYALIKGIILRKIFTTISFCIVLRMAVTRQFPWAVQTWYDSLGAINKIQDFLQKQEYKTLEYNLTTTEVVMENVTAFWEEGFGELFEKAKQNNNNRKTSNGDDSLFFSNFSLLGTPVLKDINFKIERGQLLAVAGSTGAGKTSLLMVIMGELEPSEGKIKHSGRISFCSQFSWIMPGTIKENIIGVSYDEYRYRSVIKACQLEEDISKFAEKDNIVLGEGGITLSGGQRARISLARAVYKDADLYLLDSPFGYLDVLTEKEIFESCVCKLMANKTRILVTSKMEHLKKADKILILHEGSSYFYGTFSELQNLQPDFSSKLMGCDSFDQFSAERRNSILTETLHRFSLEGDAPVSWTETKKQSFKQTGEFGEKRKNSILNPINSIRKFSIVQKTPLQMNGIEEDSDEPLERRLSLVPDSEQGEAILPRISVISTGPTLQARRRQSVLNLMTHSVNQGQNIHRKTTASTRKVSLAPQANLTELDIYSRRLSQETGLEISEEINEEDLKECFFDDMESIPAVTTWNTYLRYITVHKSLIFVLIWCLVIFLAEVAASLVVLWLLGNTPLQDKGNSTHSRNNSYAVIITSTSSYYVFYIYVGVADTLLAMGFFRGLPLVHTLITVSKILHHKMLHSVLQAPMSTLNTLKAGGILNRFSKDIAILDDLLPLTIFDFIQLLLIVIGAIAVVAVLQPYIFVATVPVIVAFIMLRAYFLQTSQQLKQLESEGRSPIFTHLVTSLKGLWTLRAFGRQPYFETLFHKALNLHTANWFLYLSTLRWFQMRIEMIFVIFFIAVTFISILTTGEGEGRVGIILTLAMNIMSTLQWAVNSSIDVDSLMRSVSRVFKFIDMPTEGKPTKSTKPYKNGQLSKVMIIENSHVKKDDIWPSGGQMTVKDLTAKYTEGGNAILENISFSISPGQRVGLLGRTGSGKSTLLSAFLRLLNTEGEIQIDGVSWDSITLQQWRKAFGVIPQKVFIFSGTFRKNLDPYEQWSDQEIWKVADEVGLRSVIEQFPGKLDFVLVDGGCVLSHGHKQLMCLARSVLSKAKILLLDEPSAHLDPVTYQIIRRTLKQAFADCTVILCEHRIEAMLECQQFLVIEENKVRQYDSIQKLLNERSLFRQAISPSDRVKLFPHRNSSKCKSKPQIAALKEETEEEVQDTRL

Compound | Emax | pEC50
O=S1(=O)Nc2ccc(C(F)(F)F)c(n2)-c2cc(F)ccc2OCCCCN(CCCCO)c2cccc1n2 [Compound 23, 1^5-fluoro-6-(4-hydroxybutyl)-2^3-(trifluoromethyl)-11-oxa-4-thia-3,6-diaza-2,5(2,6)-dipyridina-1(1,2)-benzenacycloundecaphane 4,4-dioxide] | 592% | 6.16
O=S1(=O)Nc2ccc(Cl)c(n2)-c2ccccc2CCCCCN(CCCO)c2cccc1n2 [Compound 24, 2^3-chloro-6-(3-hydroxypropyl)-4-thia-3,6-diaza-2,5(2,6)-dipyridina-1(1,2)-benzenacycloundecaphane 4,4-dioxide] | 448% | 6.78
O=S1(=O)Nc2ccc(C(F)(F)F)c(n2)-c2ccccc2CCCCCN(CCCCO)c2cccc1n2 [Compound 25, 6-(4-hydroxybutyl)-2^3-(trifluoromethyl)-4-thia-3,6-diaza-2,5(2,6)-dipyridina-1(1,2)-benzenacycloundecaphane 4,4-dioxide] | 932% | 6.57
O=S1(=O)Nc2ccc(C(F)(F)F)c(n2)-c2cc(F)ccc2CCCCCN(CCCO)c2cccc1n2 [Compound 26, 1^5-fluoro-6-(3-hydroxypropyl)-2^3-(trifluoromethyl)-4-thia-3,6-diaza-2,5(2,6)-dipyridina-1(1,2)-benzenacycloundecaphane 4,4-dioxide] | – | 6.18
O=S1(=O)Nc2ccc(C(F)(F)F)c(n2)-c2ccccc2CCCCCN(CCCO)c2cccc1n2 [Compound 29, 6-(3-hydroxypropyl)-2^3-(trifluoromethyl)-4-thia-3,6-diaza-2,5(2,6)-dipyridina-1(1,2)-benzenacycloundecaphane 4,4-dioxide] | 517% | 6.84
O=S1(=O)Nc2ccc(C(F)(F)F)c(n2)-c2cc(F)ccc2CCCCCNc2cccc1n2 [Compound 31, 1^5-fluoro-2^3-(trifluoromethyl)-4-thia-3,6-diaza-2,5(2,6)-dipyridina-1(1,2)-benzenacycloundecaphane 4,4-dioxide] | 580% | 6.21
CCOC(=O)C(C)(C)CN1CCCCCCc2ccccc2-c2nc(ccc2C(F)(F)F)NS(=O)(=O)c2cccc1n2 [Compound 32, ethyl 3-(4,4-dioxido-2^3-(trifluoromethyl)-4-thia-3,6-diaza-2,5(2,6)-dipyridina-1(1,2)-benzenacyclododecaphane-6-yl)-2,2-dimethylpropanoate] | – | 6.53
O=S1(=O)Nc2ccc(C(F)(F)F)c(n2)-c2ccccc2CCC(O)CNc2cccc1n2 (stereo not shown) [Compound 33, 8-hydroxy-2^3-(trifluoromethyl)-4-thia-3,6-diaza-2,5(2,6)-dipyridina-1(1,2)-benzenacyclodecaphane 4,4-dioxide] | 119% | 5.48
CC1(C)O[C@@H](CO)[C@H](CN2CCCCCc3ccccc3-c3nc(ccc3C(F)(F)F)NS(=O)(=O)c3cccc2n3)O1 [Compound 34, 6-(((4S,5S)-5-(hydroxymethyl)-2,2-dimethyl-1,3-dioxolan-4-yl)methyl)-2^3-(trifluoromethyl)-4-thia-3,6-diaza-2,5(2,6)-dipyridina-1(1,2)-benzenacycloundecaphane 4,4-dioxide] | 448% | 6.55
CN1CCCCCCc2ccccc2-c2nc(ccc2C(F)(F)F)NS(=O)(=O)c2cccc1n2 [Compound 35, 6-methyl-2^3-(trifluoromethyl)-4-thia-3,6-diaza-2,5(2,6)-dipyridina-1(1,2)-benzenacyclododecaphane 4,4-dioxide] | 715% | 6.48
O=S1(=O)Nc2ccc(C(F)(F)F)c(n2)-c2ccccc2CCCCCCNc2cccc1n2 [Compound 36, 2^3-(trifluoromethyl)-4-thia-3,6-diaza-2,5(2,6)-dipyridina-1(1,2)-benzenacyclododecaphane 4,4-dioxide] | 583% | 6.60
CC1(C)OCC(CN2CCCCCc3ccccc3-c3nc(ccc3C(F)(F)F)NS(=O)(=O)c3cccc2n3)O1 (stereo not shown) [Compound 37, 6-((2,2-dimethyl-1,3-dioxolan-4-yl)methyl)-2^3-(trifluoromethyl)-4-thia-3,6-diaza-2,5(2,6)-dipyridina-1(1,2)-benzenacycloundecaphane 4,4-dioxide] | 651% | 6.41
O=S1(=O)Nc2ccc(C(F)(F)F)c(n2)-c2ccccc2CCCCCCCN(CCCO)c2cccc1n2 [Compound 39, 6-(3-hydroxypropyl)-2^3-(trifluoromethyl)-4-thia-3,6-diaza-2,5(2,6)-dipyridina-1(1,2)-benzenacyclotridecaphane 4,4-dioxide] | – | 6.63
O=S1(=O)Nc2ccc(C(F)(F)F)c(n2)-c2ccccc2CCCCCCCN(CCCCO)c2cccc1n2 [Compound 40, 6-(4-hydroxybutyl)-2^3-(trifluoromethyl)-4-thia-3,6-diaza-2,5(2,6)-dipyridina-1(1,2)-benzenacyclotridecaphane 4,4-dioxide] | – | 6.66
O=S1(=O)Nc2ccc(C(F)(F)F)c(n2)-c2ccccc2CCCCCCCN(CCCCCO)c2cccc1n2 [Compound 41, 6-(5-hydroxypentyl)-2^3-(trifluoromethyl)-4-thia-3,6-diaza-2,5(2,6)-dipyridina-1(1,2)-benzenacyclotridecaphane 4,4-dioxide] | – | 6.73
O=S1(=O)Nc2ccc(C(F)(F)F)c(n2)-c2ccccc2CCCCCCCCCN(CCCCO)c2cccc1n2 [Compound 42, 6-(4-hydroxybutyl)-2^3-(trifluoromethyl)-4-thia-3,6-diaza-2,5(2,6)-dipyridina-1(1,2)-benzenacyclopentadecaphane 4,4-dioxide] | – | 6.66
O=S1(=O)Nc2ccc(C(F)(F)F)c(n2)-c2ccccc2CCCCCCCCN(CCCO)c2cccc1n2 [Compound 43, 6-(3-hydroxypropyl)-2^3-(trifluoromethyl)-4-thia-3,6-diaza-2,5(2,6)-dipyridina-1(1,2)-benzenacyclotetradecaphane 4,4-dioxide] | – | 6.59
O=S1(=O)Nc2ccc(C(F)(F)F)c(n2)-c2ccccc2CCCCCCCCN(CCCCO)c2cccc1n2 [Compound 44, 6-(4-hydroxybutyl)-2^3-(trifluoromethyl)-4-thia-3,6-diaza-2,5(2,6)-dipyridina-1(1,2)-benzenacyclotetradecaphane 4,4-dioxide] | – | 6.80
O=S1(=O)Nc2ccc(C(F)(F)F)c(n2)-c2ccccc2CCCCCCCCCN(CCCO)c2cccc1n2 [Compound 45, 6-(3-hydroxypropyl)-2^3-(trifluoromethyl)-4-thia-3,6-diaza-2,5(2,6)-dipyridina-1(1,2)-benzenacyclopentadecaphane 4,4-dioxide] | – | 6.44
COC(=O)CN1CCCCCCc2ccccc2-c2nc(ccc2C(F)(F)F)NS(=O)(=O)c2cccc1n2 [Compound 61, methyl 2-(4,4-dioxido-2^3-(trifluoromethyl)-4-thia-3,6-diaza-2,5(2,6)-dipyridina-1(1,2)-benzenacyclododecaphane-6-yl)acetate] | – | 6.43
O=C(O)CCN1CCCCCCCc2ccccc2-c2nc(ccc2C(F)(F)F)NS(=O)(=O)c2cccc1n2 [Compound 62, 3-(4,4-dioxido-2^3-(trifluoromethyl)-4-thia-3,6-diaza-2,5(2,6)-dipyridina-1(1,2)-benzenacyclotridecaphane-6-yl)propanoic acid] | – | 6.39

Reference: patent publication US20220071971A1, “MACROCYCLIC COMPOUNDS AND THEIR USE IN THE TREATMENT OF DISEASE” (NOVARTIS AG, priority 2018, published 2022)
